Literature values as cited in patent publication US20210214291A1, “Rapid Thermal Isomerization of Lycopene” (priority 2020, published 2021).
Where two headings read alike, the source gives them in different places.

Experiments:
[1] = tested on: super oxide dismutase (SOD) activity; settings: for increase in SOD activity: patients
[2] = organic solvents, 24 hrs

## CC(C)=CCC/C(C)=C/C=C/C(C)=C/C=C/C(C)=C/C=C/C=C(C)/C=C/C=C(C)/C=C/C=C(\C)CCC=C(C)C [lycopene]
[1]; daily 6 mg for 8 wks
  increase in SOD activity: 1.73 units per milliliter
[1]; daily 15 mg for 8 wks
  increase in SOD activity: 2.37 units per milliliter
[1]; high dose group (15 mg daily, 8 wks)
  reduction in C-reactive protein (CRP) levels: 57%

## CC(C)=CCC/C(C)=C/C=C/C(C)=C/C=C/C(C)=C/C=C/C=C(C)/C=C/C=C(C)/C=C/C=C(\C)CCC=C(C)C [trans-lycopene]
[2]; 4 C
  isomerization ratio to the cis-isomer: 11.4%
[2]; 50 C
  isomerization ratio to the cis-isomer: 77.8%
